ED50 data for one molecule are collected here from patent publication EP0382185A2, “Carbostyril derivatives” (OTSUKA PHARMACEUTICAL CO., LTD., priority 1989, dated 1990).

The assay concerns increase of diastolic pressure caused by the intravenous administration of Arg-vasopressin. Nature of the assay: Anti-vasopressor activity in vivo. Details: species or system male SD rat. Particulars: 0.05 h; pith rat; test compound intravenous; Arg-vasopressin (30 mU/kg) intravenously 3 minutes after the test compound; dose reducing the increase of diastolic pressure to 50 % of control.

In turn, `COc1ccc(C(=O)N2CCC(N3C(=O)CCc4ccc(F)cc43)CC2)c(OC)c1` [Example 311, 7-Fluoro-1-[1-(2,4-dimethoxybenzoyl)-4-piperidinyl]-3,4-dihydrocarbostyril] showed an ED50 of 0.3 mg/kg.
